Data on 5 molecules can be found in publication PMC5809530, “Resculpting the binding pocket of APC superfamily LeuT-fold amino acid transporters” (Cellular and Molecular Life Sciences: CMLS, 2017).

Holding throughout (format): cell-based
The target of test [1] is T1, SNAT5 (SLC38A5) (Homo sapiens, UniProt Q8WUX1, A138T).
T1 construct: full length in pSPORT1, expressed in Xenopus laevis oocytes
Kind of test: radiolabelled alanine uptake and competition with serine uptake in Xenopus oocytes. The settings on record: 50 μM substrate, 0-10 mM competitor; pH 8.5, Na+.

The target in test [2] is T2, SNAT5 (SLC38A5) (Homo sapiens, UniProt Q8WUX1, A138I).
T2 construct: full length in pSPORT1, expressed in Xenopus laevis oocytes
Described as above. Particulars: 50 μM substrate, 0-10 mM competitor; pH 8.5, Na+.

The target in test [3] is T3, SNAT5 (SLC38A5) (Homo sapiens, UniProt Q8WUX1).
T3 construct: full length in pSPORT1, expressed in Xenopus laevis oocytes
Kind of test: competition with radiolabelled serine uptake in Xenopus oocytes. The settings on record: 50 μM serine, 0-10 mM asparagine; pH 8.5, Na+.

Test [4] concerns the target PAT2 (SLC36A2) (Rattus norvegicus, UniProt Q8K415). Kind of test: competition with radiolabelled proline uptake in Xenopus oocytes. The arrangement: full length in pSPORT1, expressed in Xenopus laevis oocytes. Particulars: 10 μM proline, 10 mM glycine; Na+-free, pH 5.5.
Test [5] concerns the target T3, SNAT5 (SLC38A5). Kind of test: radiolabelled serine uptake and self-competition in Xenopus oocytes. Particulars: 50 μM serine; pH 8.5, Na+.
For test [6], the target named is T4, PAT2 (SLC36A2) (Rattus norvegicus, UniProt Q8K415, F159I).
T4 construct: full length in pSPORT1, expressed in Xenopus laevis oocytes
The experiment in a line: competition with radiolabelled proline uptake and direct uptake in Xenopus oocytes. The settings on record: 10 μM proline, 0-20 mM α-ABA; Na+-free, pH 5.5.

T3 sequence (Q8WUX1 whole entry): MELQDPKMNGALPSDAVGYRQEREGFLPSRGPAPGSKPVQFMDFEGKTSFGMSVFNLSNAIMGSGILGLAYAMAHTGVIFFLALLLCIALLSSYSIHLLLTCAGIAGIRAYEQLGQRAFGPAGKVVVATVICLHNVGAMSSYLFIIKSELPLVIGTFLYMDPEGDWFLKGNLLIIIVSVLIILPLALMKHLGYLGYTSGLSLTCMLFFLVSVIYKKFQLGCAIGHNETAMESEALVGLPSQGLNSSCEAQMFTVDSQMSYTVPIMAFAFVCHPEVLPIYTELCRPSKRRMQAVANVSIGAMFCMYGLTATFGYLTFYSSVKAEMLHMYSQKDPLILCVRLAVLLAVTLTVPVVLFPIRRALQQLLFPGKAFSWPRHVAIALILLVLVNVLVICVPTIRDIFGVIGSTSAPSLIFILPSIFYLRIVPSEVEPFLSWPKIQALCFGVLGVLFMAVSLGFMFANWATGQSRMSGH
T2 sequence (Q8WUX1 whole entry A138I): as the sequence (Q8WUX1 whole entry) above, with A138I counted along it
T1 sequence (Q8WUX1 whole entry A138T): as the sequence (Q8WUX1 whole entry) above, with A138T counted along it
T4 sequence (Q8K415 whole entry F159I): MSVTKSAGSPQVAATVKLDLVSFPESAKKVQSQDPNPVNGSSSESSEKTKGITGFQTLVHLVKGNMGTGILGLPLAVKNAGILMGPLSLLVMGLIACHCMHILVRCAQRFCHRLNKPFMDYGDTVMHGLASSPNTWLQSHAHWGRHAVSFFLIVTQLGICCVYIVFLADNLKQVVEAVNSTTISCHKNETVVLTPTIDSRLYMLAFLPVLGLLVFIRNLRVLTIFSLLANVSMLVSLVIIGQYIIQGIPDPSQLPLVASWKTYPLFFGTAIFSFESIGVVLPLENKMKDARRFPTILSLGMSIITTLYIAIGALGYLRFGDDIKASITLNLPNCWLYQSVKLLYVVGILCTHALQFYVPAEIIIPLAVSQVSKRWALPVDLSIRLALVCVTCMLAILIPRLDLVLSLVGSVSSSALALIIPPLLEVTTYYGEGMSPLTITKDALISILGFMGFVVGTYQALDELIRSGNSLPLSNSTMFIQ
Chain of PAT2 (SLC36A2) (Rattus norvegicus, UniProt Q8K415) (Q8K415 whole entry): as the sequence (Q8K415 whole entry F159I) above, with I159F counted along it

In the case of `C[C@H](N)C(=O)O` [alanine], the “radiolabelled alanine uptake and competition with serine uptake in Xenopus oocyt” value on SNAT5 (SLC38A5) [1] is “A138T and A138I mutants gain function and become excellent alanine transporters”; on SNAT5 (SLC38A5) [2] it was “A138T and A138I mutants gain function and become excellent alanine transporters”. Consider `NC(=O)C[C@H](N)C(=O)O` [asparagine], for which the “competition with radiolabelled serine uptake in Xenopus oocytes” value at SNAT5 (SLC38A5) [3] is “measured in the presence of e unlabelled serine, f asparagine, or g alanine”.

Take `NCC(=O)O` [glycine]: the “competition with radiolabelled proline uptake in Xenopus oocytes” value at PAT2 (SLC36A2) [4] is “Glycine and alanine interact with all five carriers”. On to `N[C@@H](CO)C(=O)O` [serine], for which the “radiolabelled serine uptake and self-competition in Xenopus oocytes” value on SNAT5 (SLC38A5) [5] is “Serine is transported well by SNAT5, whereas alanine is transported poorly”. As for `CC[C@H](N)C(=O)O` [α-ABA], the “competition with radiolabelled proline uptake and direct uptake in Xenopus oocyt” value on PAT2 (SLC36A2) [6] was “PAT2-F159I not only binds Ser and α-ABA but efficiently translocates these amino acids”.
